Where two headings read alike, the source gives them in different places.
Experiments:
[1] = dogs
[2] = molecular target: T1, human muscarinic receptor M2 (Homo sapiens, UniProt P08172); experiment: Calcium flux assay (FLIPR), CHO cells expressing human M2; type: cell-based; conditions: agonist mode
T1 construct: expressed in transfected cells
Procedure: (§1) All cells used in the following experiments were clonal populations of Chinese Hamster Ovary (CHO) cells stably expressing the corresponding human muscarinic receptor, except for the M4 cell line, which was a population of CHO cells transiently transfected with the human M4 receptor. Muscarinic agonism and antagonism of each receptor was measured by a quantitative calcium flux assay that is used for multiple classes of G-protein-coupled receptors, or GPCRs, as described elsewhere (e.g., Arkin et al., […], PMID: 22553878). Acetylcholine and atropine were used as positive controls for receptor agonism and antagonism, respectively. The procedure was as follows: • 1. Cells were thawed and cultured in cell culture medium (DMEM/F12 containing 10% FBS, 1× penicillin-streptomycin and 600 μg/ml hygromycin B) at 37° C. in 5% (v/v) CO2. • 2. One day before the assays, cells were detached using TrypLE™ and counted using a cell-counter. Only cells with >85% viability are used for the assay. • 3. […] Plates were read for 160 sec with 1 sec intervals to obtain the data in agonist mode, then kept at 25° C. in the dark for 30 min. • 11. […] Plates were read for 160 sec with 1 sec intervals, thereby measuring the ability for test compounds to antagonize the activation of muscarinic receptors by Ach.

human M4 receptor = molecular target: T2, human M4 receptor (Homo sapiens, UniProt P08173); experiment: Calcium flux assay (FLIPR), CHO cells transiently transfected with human M4; type: cell-based; conditions: agonist mode
T2 construct: expressed in transfected cells; host or cells: CHO (transient transfection)
T2 sequence (P08173 whole entry): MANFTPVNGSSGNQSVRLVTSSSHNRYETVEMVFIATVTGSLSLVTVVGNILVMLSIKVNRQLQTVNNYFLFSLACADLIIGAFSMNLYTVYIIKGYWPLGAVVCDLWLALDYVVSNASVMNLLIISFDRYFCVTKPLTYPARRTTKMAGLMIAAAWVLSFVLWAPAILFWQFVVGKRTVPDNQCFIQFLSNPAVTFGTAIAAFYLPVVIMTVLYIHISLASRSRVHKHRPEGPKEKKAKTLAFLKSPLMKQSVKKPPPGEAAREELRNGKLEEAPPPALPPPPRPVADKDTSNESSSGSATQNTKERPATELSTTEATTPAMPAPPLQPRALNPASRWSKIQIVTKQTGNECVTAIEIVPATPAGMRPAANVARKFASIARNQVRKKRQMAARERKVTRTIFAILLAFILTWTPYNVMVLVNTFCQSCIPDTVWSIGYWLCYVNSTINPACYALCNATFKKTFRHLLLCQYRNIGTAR
Procedure: All cells used in the following experiments were clonal populations of Chinese Hamster Ovary (CHO) cells stably expressing the corresponding human muscarinic receptor, except for the M4 cell line, which was a population of CHO cells transiently transfected with the human M4 receptor. […] The procedure was as follows: • 1. Cells were thawed and cultured in cell culture medium (DMEM/F12 containing 10% FBS, 1× penicillin-streptomycin and 600 μg/ml hygromycin B) at 37° C. in 5% (v/v) CO2. • 2. One day before the assays, cells were detached using TrypLE™ and counted using a cell-counter. […] 12,000 cells/well were seeded in 30 μl/well culture medium in a 384-well cell plate and incubated overnight at 37C, 5% (v/v) CO2. • 4. On the assay day, 2× dye solution was prepared following the manual of the FLIPR® Calcium 6 Assay Kit: • i. The dye was diluted with assay buffer (20 mM HEPES in 1× HBSS, PH 7.4); • ii. Probenecid was added to a final concentration of 5 mM; • iii. Cells were vortexed vigorously for 1-2 minutes. • 5. Medium was removed from the cell plate by flicking the cell plate on paper towels. • 6. 10 μl of assay buffer and 10 μl of 2× dye solution was added to each well of the cell plate. • 7. […] Plates were read for 160 sec with 1 sec intervals to obtain the data in agonist mode, then kept at 25° C. in the dark for 30 min. • 11.

[3] = molecular target: T3, human muscarinic receptor M5 (Homo sapiens, UniProt P08912); experiment: Calcium flux assay (FLIPR), CHO cells expressing human M5; type: cell-based; conditions: agonist mode
T3 construct: expressed in transfected cells
T3 sequence (P08912 whole entry): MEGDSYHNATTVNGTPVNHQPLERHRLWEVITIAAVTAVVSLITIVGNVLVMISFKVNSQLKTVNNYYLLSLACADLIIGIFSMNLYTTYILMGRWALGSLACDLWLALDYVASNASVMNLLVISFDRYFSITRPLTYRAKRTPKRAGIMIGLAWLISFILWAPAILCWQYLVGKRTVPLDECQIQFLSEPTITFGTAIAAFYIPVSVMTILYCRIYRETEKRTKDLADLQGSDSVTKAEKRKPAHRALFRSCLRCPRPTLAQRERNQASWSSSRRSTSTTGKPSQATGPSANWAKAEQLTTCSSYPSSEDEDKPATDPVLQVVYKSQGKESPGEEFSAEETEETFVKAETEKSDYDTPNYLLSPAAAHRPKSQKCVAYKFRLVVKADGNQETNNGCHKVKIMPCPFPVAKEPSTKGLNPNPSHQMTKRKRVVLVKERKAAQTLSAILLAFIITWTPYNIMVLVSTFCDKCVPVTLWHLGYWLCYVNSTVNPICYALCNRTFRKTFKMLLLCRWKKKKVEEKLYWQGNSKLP
Procedure: as §1

[4] = In vivo PK of (S)-BTC in rats: plasma, brain, CSF; conditions: male, Sprague Dawley, rat, 10 mg/kg single oral dose; for Kp: po, 10 mg/kg
Procedure: 6-8-week-old male Sprague Dawley rats were fasted overnight prior to treatment. […] Treated animals were exsanguinated prior to brain collection, and brain samples were frozen at −80° C. […] Concentrations of compounds in the plasma, brain, CSF samples were analyzed using a standard LC-MS/MS method to detect parent test compound from each of the processed tissues. The following pharmacokinetic parameters were calculated and analyzed using WinNonlin (Phoenix™, version 8.3): T1/2, Cmax, Tmax, MRT, AUCinf, AUClast, F %, ratio of brain/plasma, ratio of CSF/plasma, and ratio of CSF/brain.

T1 sequence (P08172 whole entry): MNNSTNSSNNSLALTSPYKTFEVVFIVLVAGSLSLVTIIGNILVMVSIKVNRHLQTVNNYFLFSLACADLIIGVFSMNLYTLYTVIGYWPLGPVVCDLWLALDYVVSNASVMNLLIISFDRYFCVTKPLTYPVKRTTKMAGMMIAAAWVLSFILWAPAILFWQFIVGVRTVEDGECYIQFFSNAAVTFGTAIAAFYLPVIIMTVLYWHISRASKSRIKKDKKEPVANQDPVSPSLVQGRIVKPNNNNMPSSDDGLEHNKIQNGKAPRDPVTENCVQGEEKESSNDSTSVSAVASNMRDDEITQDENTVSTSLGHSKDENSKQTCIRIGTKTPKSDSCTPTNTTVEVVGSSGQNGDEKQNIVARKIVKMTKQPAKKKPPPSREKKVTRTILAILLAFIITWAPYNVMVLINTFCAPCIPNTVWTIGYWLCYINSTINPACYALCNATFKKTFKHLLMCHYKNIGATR

share of total THP that was (R)-THP ([1]; IV 0.2 mg/kg Racemic THP) | share of serum THP detected that was (R)-THP ([1]; oral 2 mg/kg Racemic THP, alone or co-dosed with Bethanechol) | EC50 [2] | EC50 (human M4 receptor) | EC50 [3] | Kp ([4]; CSF and plasma, read-out: AUClast Ratio (CSF/Plasma)) | Kp ([4]; CSF and plasma, read-out: Cmax Ratio (CSF/Plasma)) | Kp ([4]; brain and plasma, read-out: AUClast Ratio (Brain/Plasma)) | Kp ([4]; brain and plasma, read-out: Cmax Ratio (Brain/Plasma)) | AUC(0-t) ([4]; CSF, mean) | Cmax ([4]; CSF, mean) | Tmax ([4]; CSF, mean) | Cmax ([4]; brain, mean) | Tmax ([4]; brain, mean) | AUC(0-inf) ([4]; plasma, mean) | AUC(0-t) ([4]; plasma, mean) | Cmax ([4]; plasma, mean) | Tmax ([4]; plasma, mean) | half-life ([4]; plasma, mean) | MRT inf ([4]; plasma, mean, read-out: MRTInf obs) | Structure (SMILES)
~60% | over 80% |  |  |  |  |  |  |  |  |  |  |  |  |  |  |  |  |  |  | O[C@@](CCN1CCCCC1)(c1ccccc1)C1CCCCC1 [(R)-THP, (R)-trihexyphenidyl]
 |  | 405 nM | > 10000 nM | 124 nM | 0.00615 | 0.00553 | 0.0499 | 0.0242 | 6.31 ng·h/mL | 1.74 ng/mL | 0.5 h | 7.6 ng/g | 8 h | 1080 ng·h/mL | 1030 ng·h/mL | 314 ng/mL | 1 h | 1.81 h | 2.91 h | C[C@@H](C[N+](C)(C)C)OC(N)=O.[Cl-] [(S)-BTC, (S)-bethanechol]

Reference: US12290513B2, “Therapeutic methods and compositions for treating movement disorders” (Vima Therapeutics, Inc., priority 2023, dated 2025)
